According to patent US5055594A, “Fluorogenic trypotophanase substrates” (Becton, Dickinson and Company, priority 1990, dated 1991):

What was measured:
[1] = test system: tryptophanase; assay: Reaction of serine-AMC-carbamate with tryptophanase (fluorescence increase); type: biochemical; details: 1.19×10^-6 M substrate, pH 8.2, 100 μL of 5.0 mq/mL tryptophanase; excitation 365 nm
Procedure: To a 1.19×10^-6 M solution of serine-AMC-carbamate dissolved in 100 mM potassium phosphate buffer, pH 8.2 was added 100 μL of a 5.0 mq/mL solution of tryptophanase. Fluorescence increase was measured at 440 nm, with excitation at 365 nm. Starting fluorescence of the serine-AMC-carbamate solution was 26 relative units. After addition of the enzyme, fluorescence at 440 nM increased at a rate of 97 units/minute. […] Fluorescence increase in the absence of enzyme was negligible.

[2] = test system: Citrobacter freundii; assay: Determination of the indole reaction of microorganisms (substrate on cellulose disks, AMC release); type: cell-based; details: for FLUORESCENCE INCREASE (ng AMC/min): 3×10^8 cfu/ml, phosphate buffer pH 8.4 with toluene, ex 365 nm, em 440 nm
Procedure: (§1) Aliquots of 20 microliters of a 0.5% solution of the substrate of Example I dissolved in dimethylsulfoxide were added to cellulose disks (catalog no. 740-E, Schleicher and Schuell, Inc. Keene, N.H.). The DMSO was removed by vacuum dessication. The dried disks were placed in the wells of a black polystyrene microwell tray. Four of the disks were each inoculated with 25 microliters of a suspension containing 3×10^8 colony forming units per ml of the known indole positive microorganisms Escherichia coli and Citrobacter diversus and the known indole negative microorganisms Klebsiella pneumoniae and Citrobacter freundii. The suspensions were made in phosphate buffer, pH 8.4, containing toluene at a concentration of 2 drops per 5 ml of buffer to permeabilize the bacteria. Four disks were inoculated with buffer alone to serve as controls. The disks were excited at 365 nm using a xenon lamp and fluorescence was measured at 1 minute intervals for 10 minutes at a wavelength of 440 nm using a Fluoroskan II (Flow Laboratories, McLean, Va. 22102) reader. Results from the four tubes for each organism were averaged and are expressed in the Table as nanograms of free AMC released per minute.

[3] = test system: Citrobacter diversus; assay: as above; type: cell-based; details: for FLUORESCENCE INCREASE (ng AMC/min): 3×10^8 cfu/ml, phosphate buffer pH 8.4 with toluene, ex 365 nm, em 440 nm
Procedure: as §1

[4] = test system: Escherichia coli; assay: as above; type: cell-based; details: for FLUORESCENCE INCREASE (ng AMC/min): 3×10^8 cfu/ml, phosphate buffer pH 8.4 with toluene, ex 365 nm, em 440 nm
Procedure: as §1

[5] = test system: Klebsiella pneumoniae; assay: as above; type: cell-based
Procedure: as §1

For `Cc1cc(=O)oc2cc(NC(=O)OC[C@H](N)C(=O)O)ccc12` [serine-AMC-carbamate], the “Rate of fluorescence increase at 440 nM after addition of the enzyme” value [1] was 97 units/minute, the “Fluorescence increase compared with the control” value ([2]; C. freundii (indole negative), versus buffer control) was “about the same fluorescence increase as the control” and the “FLUORESCENCE INCREASE (ng AMC/min)” value ([2]; C. freundii strain 2027) was 0.8 ng AMC/min. For the same compound, the “FLUORESCENCE INCREASE (ng AMC/min)” value ([2]; C. freundii strain 2058) was 0.45 ng AMC/min, the “Fluorescence increase compared with the control” value ([3]; C. diversus (indole positive), versus buffer control) was “much larger fluorescence increases” and the “FLUORESCENCE INCREASE (ng AMC/min)” value ([3]; C. diversus strain 404) was 5.35 ng AMC/min. For the same compound, the “FLUORESCENCE INCREASE (ng AMC/min)” value ([3]; C. diversus strain 2075) was 4.4 ng AMC/min, the “Fluorescence increase compared with the control” value ([4]; E. coli (indole positive), versus buffer control) was “much larger fluorescence increases” and the “FLUORESCENCE INCREASE (ng AMC/min)” value ([4]; E. coli strain 1W9901N1) was 1.53 ng AMC/min. The “FLUORESCENCE INCREASE (ng AMC/min)” value ([4]; E. coli strain 2W0803N1) was 1.85 ng AMC/min, the “FLUORESCENCE INCREASE (ng AMC/min)” value ([4]; E. coli strain 4H8162N1) was 1.6 ng AMC/min and the “FLUORESCENCE INCREASE (ng AMC/min)” value ([4]; E. coli strain 7W0563N1) was 1.7 ng AMC/min. The “Fluorescence increase compared with the control” value ([5]; K. pneumoniae (indole negative), versus buffer control) was “about the same fluorescence increase as the control” and the “FLUORESCENCE INCREASE (ng AMC/min)” value ([5]; K. pneumoniae strain 6N3696N1, 3×10^8 cfu/ml, phosphate buffer pH 8.4 with toluene, ex 365 nm, em 440 nm) was 0.5 ng AMC/min.
